Reference: patent US20240366648A1, “NAD-AUGMENTATION THERAPY FOR PARKINSON'S DISEASE” (Vestlandets Innovasjonsselskap AS (VIS), priority 2021, published 2024)

Experiments:
yeast = settings: Belenky et al. 2007; cited from earlier work
[1] = tested on: gene expression in muscle; assay: RNA-seq differential gene expression in muscle tissue; type: in vivo, human; settings: NR vs placebo
Experimental: For all subjects at both visits, total RNA was extracted from muscle biopsy tissue and PBMC homogenate using RNeasy plus mini kit (Qiagen) with on-column DNase treatment according to manufacturer's protocol. The final elution was made in 45 ul of dH2O. The concentration and integrity of the total RNA were estimated by Ribogreen assay (Thermo Fisher Scientific), and Fragment Analyzer (Advanced Analytical), respectively, and 10 ng of total RNA was used for downstream RNA-seq applications using the SMARTer Stranded Total RNA-Seq Kit v2-Pico Input Mammalian Kit (IlluminaTakara Bio USA, Inc., Mountian View, CA) as per manufacturer's recommended protocol. Library quantity was assessed by Picogreen Assay (Thermo Fisher Scientific), and the library quality was estimated by utilizing a DNA High Sense chip on a Caliper Gx (Perkin Elmer). Accurate quantification of the final libraries for sequencing applications was determined using the qPCR-based KAPA Biosystems Library Quantification kit (Kapa Biosystems, Inc.). Each library pooled equimolar prior to clustering. One hundred bp paired-end sequencing was performed on an Illumina NovaSeq S4 sequencer (Illumina, Inc.). Two subjects were discarded from the PBMC samples and two from the muscle samples due to either insufficient tissue quantity, participant drop out/lack of sample, or being outliers in expression. […] FASTQ files were assessed using […] version 0.11.9. Quantification at the transcript level was calculated using Salmon version 1.3.0 with fragment-level GC bias correction against the GENCODE version 35, with the whole genome as decoy sequence. Transcript-level quantification was collapsed onto gene-level using the tximport R package version 1.8.0. Genes in non-canonical chromosomes and scaffolds and transcripts encoded by the mitochondrial genome were filtered out, together with non-protein-coding genes. Low-expressed genes were likewise removed from downstream analyses (expression below 10 reads for 75% of the samples). PBMC and muscle datasets were analysed independently. For PBMC samples, cell type composition was assessed employing ABIS. Differential gene expression was performed using the DESeq2 R package version 1.22.2. The generalized linear model formula accounted for both interindividual variability between subjects and the normal course of the experiment (baseline for each subject and baseline for the time-course). Multiple hypothesis testing was performed with the default automatic filtering of DESeq2 followed by false discovery rate (FDR) calculation by the Benjamini-Hochberg procedure.

healthy individuals = settings: cited from earlier work
mice = settings: Xie et al. 2019; cited from earlier work
NAD metabolome in CSF = assay: CSF metabolomics (LC-MS); type: in vivo, human; settings: all NR-recipients; oral NR 1000 mg/day, 30 days
Experimental: Biological material was collected at both visits, following a minimum 6-hour fasting and within 6 hours after study drug intake for visit 2. Sampling included whole blood, serum, peripheral blood mononuclear cells (PBMCs), cerebrospinal fluid (CSF) and muscle biopsy. Lumbar puncture was performed according to standard clinical procedures to collect 10 ml CSF. Needle biopsy of the vastus lateralis muscle was performed using a Bard Magnum biopsy gun (BD©, United States) and 12G×10 cm biopsy needles. Muscle biopsies were immediately dissected to remove any non-muscle tissue (e.g., fat or fascia) and snap-frozen in liquid nitrogen.
The extraction of metabolites from CSF samples was carried out as follows: 400 μl of each sample were mixed with 1600 μl of ice-cold UHPLC grade methanol. […] Recovery rate was tested for several relevant nucleotides and determined to be 93-96%, depending on the nucleotide.
Metabolite analysis was conducted using a Dionex UltiMate 3000 instrument coupled with an electrospray ionization (ESI) QExactive mass spectrometer (Thermo Scientific). […] Mass spectra were recorded using targeted single ion monitoring with an isolation window of 10 m/z with automatic gain control set to a target of […] and a maximum accumulation time of 300 ms. […] Absolute concentrations were calculated by external calibration curves using pure standards. […]

Structure (SMILES): NC(=O)c1ccc[n+]([C@@H]2O[C@H](CO)[C@@H](O)[C@H]2O)c1 [NR, nicotinamide riboside]
- lifespan in yeast (yeast): extends lifespan
- KLF2 expression in muscle [1]: substantial upregulation
- expression of PARP15, AMT, FARS2, TMEM242 in muscle [1]: upregulation
- gene set enrichment in muscle: proteasomal function, RNA transport and stability [1]: upregulation
- number of differentially expressed genes in muscle tissue ([1]; between visit differences, FDR<0.05): 58 genes
- oral bioavailability in humans (healthy individuals; Trammell et al. 2016): good oral bioavailability
- total levels of NAD and related metabolites in blood and muscle (healthy individuals; healthy individuals, oral 1000 mg NR daily): substantially elevates
- neuroprotection in mice (mice): neuroprotective effects
- CSF Me-2-PY levels (NAD metabolome in CSF): increase
